The results in this text go back to patent US9994862B2, “Rice resistant to HPPD and ACCase inhibiting herbicides” (priority 2011, dated 2018).

Assay [1] deals with line P1003. Nature of the assay: ACCase herbicide field trial. Conditions: four weeks after application. The assay is classed as in vivo, rice. The procedure:
(§1) FIG. 3A-3B is a photograph of line ML0831266-03093 that in addition to resistance to HPPD herbicides also has enhanced resistance to ACCase herbicides. […] Picture taken four weeks after herbicide application.
(§2) During the process of showing equivalent resistance of the ACCase tolerance in the new line PL1214418M2-73009, the HPPD tolerant line ML0831266-03093 was also evaluated for response to ACCase tolerance by application of the ACCase herbicides fluazifop at 0.5×, 1×, 2×, and 4× multiples of the label application rate (210 gmai/ha) and quizalofop at 0.5×, 1×, 2×, and 4× multiples of the label application rate (77 gmai/ha). In the field trials the resistant HPPD line ML0831266-03093 was planted in a row adjacent to the parent line P1003. […] By combining the HPPD tolerance with the ACCase tolerance the newly developed line PL1214418M2-73009, or any other new line and other derived lines because resistance is heritable and can be bred into lines e.g. progeny may carry a higher tolerance to ACCase inhibiting herbicides than lines developed from only the ACCase inhibitor resistant line ML0831265-01493.

In assay [2] the test system is HPPD tolerant line ML0831266-03093. In words: ACCase herbicide field trial. The assay is classed as in vivo, rice. Conditions: for resistance to ACCase inhibiting herbicides compared with line P1003: 0.5x to 4x of label rate (fluazifop 210 gmai/ha, quizalofop 77 gmai/ha). The procedure: as §1, §2
Assay [3] has as its system line PL1214418M2-73009. In words: ACCase herbicide field trial. Format: in vivo, rice. Conditions: for tolerance to ACCase herbicide compared with donor line ML0831265-01493: 0.5x to 4x of label rate (fluazifop 210 gmai/ha, quizalofop 77 gmai/ha). The procedure: FIG. 2 is a graphical representation of a trait tolerance trial; the trial rice were planted, quizalofop was applied at the indicated rates about 5 weeks later (initiating tillering); the rice was evaluated for the percent of injury or damage as compared to unsprayed rice four weeks after herbicide application; line ML0831265-01493 is the ACCase resistant line and R0146 and P1003 are control lines; the line PL1214418M2-73009 was selected out of a cross between the HPPD tolerant line ML0831266-03093 (parent is P1003) and the ACCase tolerant line ML0831265-01493 (parent is R0146).
(§3) Another trial was conducted to confirm recovery of the ACCase inhibitor resistance from the G2096S mutation as in the line ML0831265-01493. In this trial the new line PL1214418-73009 with combined HPPD and ACCase tolerance was planted in a row along with other various lines including the original donor line ML0831265-01493 (planted in a plot), ML0831266-03093, P1003, R0146 parent line for ACCase tolerance. The lines were all tested with the ACCase herbicides fluazifop at 0.5×, 1×, 2×, and 4× multiples of the label application rate (210 gmai/ha) and quizalofop at 0.5×, 1×, 2×, and 4× multiples of the label application rate (77 gmai/ha).

Assay [4] deals with line ML0831265-02283. Nature of the assay: ACCase herbicide field trial. Format: in vivo, rice. The source says: After screening a large mutant population, the line ML0831265-02283 also survived application of the ACCase herbicide quizalofop. The line was increased to obtain sufficient seed for larger trials to evaluate its tolerance to ACCase herbicides. The tolerance to ACCase herbicides in line ML0831265-02283 was validated by planting in the field plots (5 feet by 10 feet) of the line, the non-mutant parent line R0146, a second non-mutant line P1003, and the ACCase tolerant line ML0831265-01493. The ACCase herbicide quizalofop was applied at the four leaf stage at 0.5×, 1×, 2×, and 4× multiples of the labeled rate (77 gmai/ha). Twenty one days after the herbicide was applied the plots were evaluated for percent injury caused to the rice based on control plots that had no herbicide application (FIG. 8). The data confirms the tolerance of line ML0831265-02283 and it may even carry more tolerance than line ML0831265-01493 as shown by less injury at the 2× and 4× rates of quizalofop.

Assay [5] deals with ACCase resistant line ML0831265-01493. In words: ACCase herbicide field trial. The assay is classed as in vivo, rice. The note with it: quizalofop 77 gm ai/ha. The procedure:
(§4) FIG. 5 illustrates grass weed control by the ACCase inhibitor quizalofop; control is shown by the prevalent grass weed (dead plants) being killed by quizalofop (77 gm ai/ha) while the resistant line ML0831265-01493 (live plants) were not injured.
as §3
After screening a large mutant population, the line ML0831265-02283 also survived application of the ACCase herbicide quizalofop. The line was increased to obtain sufficient seed for larger trials to evaluate its tolerance to ACCase herbicides. […] Twenty one days after the herbicide was applied the plots were evaluated for percent injury caused to the rice based on control plots that had no herbicide application (FIG. 8). […]

The test system of assay [6] is common grass weeds, such as barnyard grass. In words: Grass weed control by ACCase herbicides in rice. The assay is classed as in vivo. The note with it: for control of common grass weeds in rice: in vivo.
Excerpt: as §4
Rice is tolerant to certain ACCase inhibitor herbicides, for example cyhalofop is registered for use in rice. However other ACCase herbicides kill or severely injure rice to varying degrees. […] The applied rates of both types of herbicides giving the weed control are well within the tolerance level of the respective ACCase and HPPD tolerant lines including the combined lines carrying tolerance to both HPPD and ACCase herbicides.

Assay [7] has as its system line PL1214418M2-80048. In words: Herbicide tolerance of the combined HPPD and ACCase line. Also noted: species or system rice. Conditions: in vivo. The text has this: An early maturing group of plants was harvested as early as possible and the seeds planted in the greenhouse to help quickly advance to the F4 generation. Selections on the F3 plants were made by molecular markers flanking the HPPD tolerance mutation and native tolerance the ACCase functional mutation. Homozygous plants for all the selected genomic regions were advanced to the F5 generation. The F5 seed was confirmed to carry tolerance to ACCase herbicides and the HPPD herbicide mesotrione. Among the F5 lines PL1214418M2-80048 was selected due to a high seed yield and being homozygous for the ACCase tolerance mutation at position G2096S, the HPPD tolerance mutation, and the HPPD tolerance native gene. Seed from the line PL1214418M2-80048 was deposited at the ATCC and given a deposit number PTA-121362 (see Table 8).
Individuals with tolerance to both mesotrione and ACCase herbicides were selfed to produce F3 families and further selected for other important agronomic characters. The F3 lines were selfed and purified to derive a new line or variety with dual resistance to mesotrione and ACCase herbicides. Such lines are highly valuable as the use of both herbicides provides more complete and broad-spectrum weed control. […]

Entries after “also recorded” stand apart in the source; their conditions may differ.

Regarding `CC(Oc1ccc(Oc2cnc3cc(Cl)ccc3n2)cc1)C(=O)O` (stereo not drawn) [quizalofop], the survival after quizalofop result in assay [1] (77 gm ai/ha) is recorded as “does not survive”; in assay [2] (77 gm ai/ha, four weeks after application), “surviving”. In addition, in assay [2], the “resistance to ACCase inhibiting herbicides compared with line P1003” value is given as “more resistance”. In addition, the “tolerance to ACCase herbicide compared with donor line ML0831265-01493” value in assay [3] is on record as “equivalent or better; also recorded: equivalent tolerance”. For the same compound, in assay [4] (2x and 4x of the labeled rate 77 gmai/ha, four leaf stage, 21 days after application), the “injury compared with line ML0831265-01493” value is “less injury”. For the same compound, in assay [4] (in vivo), the “survival in the screening of the mutant population” value is reported as “survived”. Also, the “injury of the rice” value in assay [5] was “not injured”. Besides, the “control of common grass weeds in rice” value in assay [6] was “good control”. In addition, the grass weed control entry in assay [6] (quizalofop 77 gm ai/ha, prevalent grass weed) was “killed”.
Consider `CC(Oc1ccc(Oc2ccc(C(F)(F)F)cn2)cc1)C(=O)O` (stereo not drawn) [fluazifop], for which, in assay [1] (fluazifop alone 210 gmai/ha at initiation of tillering), the “killing of rice plants” value is recorded as “no killing of the rice plants was observed”. Further, the “resistance to ACCase inhibiting herbicides compared with line P1003” value in assay [2] is recorded as “more resistance”. The “tolerance to ACCase herbicide compared with donor line ML0831265-01493” value in assay [3] was “equivalent tolerance”. Moreover, the tolerance to fluazifop result in assay [3] (in vivo) is on record as “tolerance”. The “tolerance to the herbicide” value in assay [7] is “tolerance”. Moreover, in assay [6], the “control of common grass weeds in rice” value is “good control”.
